Reference: ChEMBL document CHEMBL3885861, “Open TG-GATES”

Species on record: Rattus norvegicus
Assay: Open TG-GATES - Regimen: Single
Assay type: toxicity, organism-based, Sprague-Dawley
Design: regimen Single, gender Male, age 6 weeks
Conditions: in vivo, ip, route intraperitoneal injection; for APTT / Bas / Eos / Fbg / Hb / Ht / Lym / MCH / MCHC / MCV / Mono / Neu / PT / Plat / RBC / Ret / WBC: tissue Blood; for KIDNEY_L / KIDNEY_R / KIDNEY_TOTAL: tissue Kidney; for LIVER: tissue Liver; for A/G / ALP / ALT / AST / BUN / CRE / Ca / Cl / DBIL / GLC / IP / K / LDH / Na / PL / RALB / TBIL / TC / TG / TP / gamma-GTP: tissue Plasma
[1] = 450 mg/kg, 3 h, dose level Middle
[2] = 450 mg/kg, 6 h, dose level Middle
[3] = 450 mg/kg, 9 h, dose level Middle
[4] = 450 mg/kg, 24 h, dose level Middle
[5] = 1500 mg/kg, 3 h, dose level High
[6] = 1500 mg/kg, 6 h, dose level High
[7] = 1500 mg/kg, 9 h, dose level High
[8] = 1500 mg/kg, 24 h, dose level High

CCCCS(=N)(=O)CCC(N)C(=O)O (centres undefined) [BUTHIONINE SULFOXIMINE]
TERMINAL_BW [1]: 218.6 g
APTT [1]: 16.6 s
Bas [1]: 0%
Eos [1]: 0.8%
Fbg [1]: 216.4 mg/dL
Hb [1]: 13.3 g/dL
Ht [1]: 39.8%
Lym [1]: 69%
MCH [1]: 21.9 pg
MCHC [1]: 33.3%
MCV [1]: 65.7 fL
Mono [1]: 7.8%
Neu [1]: 22.2%
PT [1]: 12.1 s
Plat [1]: 112.2 x10_4/uL
RBC [1]: 606.8 x10_4/ul
Ret [1]: 8.5%
WBC [1]: 79.6 x10_2/uL
KIDNEY_L [1]: 1 g
KIDNEY_R [1]: 1 g
KIDNEY_TOTAL [1]: 2 g
LIVER [1]: 10.2 g
A/G [1]: 2.1
ALP [1]: 794 IU/L
ALT [1]: 42.6 IU/L
AST [1]: 72 IU/L
BUN [1]: 14 mg/dL
CRE [1]: 0.5 mg/dL
Ca [1]: 11 mg/dL
Cl [1]: 104 meq/L
DBIL [1]: 0.062 mg/dL
GLC [1]: 191.2 mg/dL
IP [1]: 10.5 mg/dL
K [1]: 4.5 meq/L
LDH [1]: 93 IU/L
Na [1]: 140.2 meq/L
PL [1]: 137.4 mg/dL
RALB [1]: 3.7 g/dL
TBIL [1]: 0.3 mg/dL
TC [1]: 71.4 mg/dL
TG [1]: 62.8 mg/dL
TP [1]: 5.5 g/dL
gamma-GTP [1]: 1.8 IU/L
TERMINAL_BW [2]: 217.2 g
APTT [2]: 16.6 s
Bas [2]: 0%
Eos [2]: 0.8%
Fbg [2]: 221.2 mg/dL
Hb [2]: 13.4 g/dL
Ht [2]: 40%
Lym [2]: 57.6%
MCH [2]: 22 pg
MCHC [2]: 33.5%
MCV [2]: 65.6 fL
Mono [2]: 4.6%
Neu [2]: 37.2%
PT [2]: 11 s
Plat [2]: 108.9 x10_4/uL
RBC [2]: 609.8 x10_4/ul
Ret [2]: 8.3%
WBC [2]: 96.1 x10_2/uL
KIDNEY_L [2]: 1 g
KIDNEY_R [2]: 1 g
KIDNEY_TOTAL [2]: 2 g
LIVER [2]: 9.4 g
A/G [2]: 2
ALP [2]: 837.2 IU/L
ALT [2]: 32 IU/L
AST [2]: 68.8 IU/L
BUN [2]: 11.4 mg/dL
CRE [2]: 0.7 mg/dL
Ca [2]: 10.8 mg/dL
Cl [2]: 104.8 meq/L
DBIL [2]: 0.016 mg/dL
GLC [2]: 193.2 mg/dL
IP [2]: 10 mg/dL
K [2]: 4.6 meq/L
LDH [2]: 100.6 IU/L
Na [2]: 140.4 meq/L
PL [2]: 129.8 mg/dL
RALB [2]: 3.5 g/dL
TBIL [2]: 0.3 mg/dL
TC [2]: 73.2 mg/dL
TG [2]: 43.2 mg/dL
TP [2]: 5.3 g/dL
gamma-GTP [2]: 1.2 IU/L
TERMINAL_BW [3]: 210.3 g
APTT [3]: 17 s
Bas [3]: 0%
Eos [3]: 0.8%
Fbg [3]: 253 mg/dL
Hb [3]: 13.3 g/dL
Ht [3]: 40%
Lym [3]: 63.2%
MCH [3]: 21.4 pg
MCHC [3]: 33.2%
MCV [3]: 64.5 fL
Mono [3]: 3.8%
Neu [3]: 32.2%
PT [3]: 11 s
Plat [3]: 113.1 x10_4/uL
RBC [3]: 620 x10_4/ul
Ret [3]: 8.4%
WBC [3]: 93.4 x10_2/uL
KIDNEY_L [3]: 1 g
KIDNEY_R [3]: 1 g
KIDNEY_TOTAL [3]: 1.9 g
LIVER [3]: 8.4 g
A/G [3]: 2.1
ALP [3]: 759.2 IU/L
ALT [3]: 31.2 IU/L
AST [3]: 61 IU/L
BUN [3]: 11.8 mg/dL
CRE [3]: 0.6 mg/dL
Ca [3]: 11 mg/dL
Cl [3]: 107 meq/L
DBIL [3]: 0.01 mg/dL
GLC [3]: 196.2 mg/dL
IP [3]: 9.6 mg/dL
K [3]: 4.8 meq/L
LDH [3]: 79.4 IU/L
Na [3]: 139.2 meq/L
PL [3]: 144.2 mg/dL
RALB [3]: 3.7 g/dL
TBIL [3]: 0.3 mg/dL
TC [3]: 84.4 mg/dL
TG [3]: 25 mg/dL
TP [3]: 5.5 g/dL
gamma-GTP [3]: 1.2 IU/L
TERMINAL_BW [4]: 229.8 g
APTT [4]: 16.6 s
Bas [4]: 0%
Eos [4]: 1.2%
Fbg [4]: 254 mg/dL
Hb [4]: 13.2 g/dL
Ht [4]: 39.6%
Lym [4]: 70.8%
MCH [4]: 21.4 pg
MCHC [4]: 33.2%
MCV [4]: 64.4 fL
Mono [4]: 9.4%
Neu [4]: 18.8%
PT [4]: 11.5 s
Plat [4]: 126.4 x10_4/uL
RBC [4]: 616.6 x10_4/ul
Ret [4]: 8.8%
WBC [4]: 85.5 x10_2/uL
KIDNEY_L [4]: 1 g
KIDNEY_R [4]: 1.1 g
KIDNEY_TOTAL [4]: 2.1 g
LIVER [4]: 11.1 g
A/G [4]: 1.8
ALP [4]: 1015.4 IU/L
ALT [4]: 30.2 IU/L
AST [4]: 60 IU/L
BUN [4]: 19.2 mg/dL
CRE [4]: 0.5 mg/dL
Ca [4]: 11.1 mg/dL
Cl [4]: 104.6 meq/L
DBIL [4]: 0.008 mg/dL
GLC [4]: 196.6 mg/dL
IP [4]: 8.3 mg/dL
K [4]: 4.4 meq/L
LDH [4]: 98 IU/L
Na [4]: 140 meq/L
PL [4]: 149.4 mg/dL
RALB [4]: 3.7 g/dL
TBIL [4]: 0.3 mg/dL
TC [4]: 80.6 mg/dL
TG [4]: 95.2 mg/dL
TP [4]: 5.8 g/dL
gamma-GTP [4]: 1.6 IU/L
TERMINAL_BW [5]: 213.4 g
APTT [5]: 16 s
Bas [5]: 0%
Eos [5]: 1%
Fbg [5]: 216.4 mg/dL
Hb [5]: 13.2 g/dL
Ht [5]: 39.5%
Lym [5]: 61.4%
MCH [5]: 21.6 pg
MCHC [5]: 33.4%
MCV [5]: 64.7 fL
Mono [5]: 9.2%
Neu [5]: 29%
PT [5]: 12 s
Plat [5]: 119.7 x10_4/uL
RBC [5]: 610.4 x10_4/ul
Ret [5]: 8.8%
WBC [5]: 106.8 x10_2/uL
KIDNEY_L [5]: 0.9 g
KIDNEY_R [5]: 1 g
KIDNEY_TOTAL [5]: 1.9 g
LIVER [5]: 10.1 g
A/G [5]: 2.2
ALP [5]: 832 IU/L
ALT [5]: 43.4 IU/L
AST [5]: 48 IU/L
BUN [5]: 15.2 mg/dL
CRE [5]: 0.4 mg/dL
Ca [5]: 10.9 mg/dL
Cl [5]: 104.8 meq/L
DBIL [5]: 0.066 mg/dL
GLC [5]: 191.2 mg/dL
IP [5]: 9.8 mg/dL
K [5]: 4.5 meq/L
LDH [5]: 89.2 IU/L
Na [5]: 138.8 meq/L
PL [5]: 137.8 mg/dL
RALB [5]: 3.8 g/dL
TBIL [5]: 0.3 mg/dL
TC [5]: 70.2 mg/dL
TG [5]: 57.8 mg/dL
TP [5]: 5.5 g/dL
gamma-GTP [5]: 1 IU/L
TERMINAL_BW [6]: 215.9 g
APTT [6]: 16.4 s
Bas [6]: 0%
Eos [6]: 0.8%
Fbg [6]: 218.6 mg/dL
Hb [6]: 13.3 g/dL
Ht [6]: 39.6%
Lym [6]: 67.2%
MCH [6]: 22 pg
MCHC [6]: 33.6%
MCV [6]: 65.5 fL
Mono [6]: 6.6%
Neu [6]: 25.6%
PT [6]: 10.8 s
Plat [6]: 124.2 x10_4/uL
RBC [6]: 605 x10_4/ul
Ret [6]: 8.3%
WBC [6]: 104.4 x10_2/uL
KIDNEY_L [6]: 0.9 g
KIDNEY_R [6]: 1 g
KIDNEY_TOTAL [6]: 1.9 g
LIVER [6]: 9 g
A/G [6]: 1.9
ALP [6]: 696.6 IU/L
ALT [6]: 31 IU/L
AST [6]: 56.2 IU/L
BUN [6]: 11.6 mg/dL
CRE [6]: 0.7 mg/dL
Ca [6]: 10.9 mg/dL
Cl [6]: 104.6 meq/L
DBIL [6]: 0.004 mg/dL
GLC [6]: 189.2 mg/dL
IP [6]: 10 mg/dL
K [6]: 4.5 meq/L
LDH [6]: 107.8 IU/L
Na [6]: 140 meq/L
PL [6]: 138.6 mg/dL
RALB [6]: 3.5 g/dL
TBIL [6]: 0.3 mg/dL
TC [6]: 80.8 mg/dL
TG [6]: 46.4 mg/dL
TP [6]: 5.4 g/dL
gamma-GTP [6]: 1.6 IU/L
TERMINAL_BW [7]: 211.3 g
APTT [7]: 17.8 s
Bas [7]: 0%
Eos [7]: 0.8%
Fbg [7]: 255.4 mg/dL
Hb [7]: 13.6 g/dL
Ht [7]: 40.4%
Lym [7]: 57.4%
MCH [7]: 21.8 pg
MCHC [7]: 33.7%
MCV [7]: 64.8 fL
Mono [7]: 5.2%
Neu [7]: 36.6%
PT [7]: 11.3 s
Plat [7]: 119.4 x10_4/uL
RBC [7]: 623.4 x10_4/ul
Ret [7]: 8.2%
WBC [7]: 103.7 x10_2/uL
KIDNEY_L [7]: 1 g
KIDNEY_R [7]: 1 g
KIDNEY_TOTAL [7]: 1.9 g
LIVER [7]: 8.6 g
A/G [7]: 1.9
ALP [7]: 782.6 IU/L
ALT [7]: 27 IU/L
AST [7]: 47.4 IU/L
BUN [7]: 12.2 mg/dL
CRE [7]: 0.5 mg/dL
Ca [7]: 11.3 mg/dL
Cl [7]: 106.2 meq/L
DBIL [7]: 0.012 mg/dL
GLC [7]: 202.4 mg/dL
IP [7]: 9.2 mg/dL
K [7]: 4.9 meq/L
LDH [7]: 89.4 IU/L
Na [7]: 138.6 meq/L
PL [7]: 137.6 mg/dL
RALB [7]: 3.7 g/dL
TBIL [7]: 0.3 mg/dL
TC [7]: 80.8 mg/dL
TG [7]: 37.6 mg/dL
TP [7]: 5.6 g/dL
gamma-GTP [7]: 1.4 IU/L
TERMINAL_BW [8]: 224.8 g
APTT [8]: 16.6 s
Bas [8]: 0%
Eos [8]: 1.4%
Fbg [8]: 273.2 mg/dL
Hb [8]: 13.3 g/dL
Ht [8]: 39.7%
Lym [8]: 73.8%
MCH [8]: 21.7 pg
MCHC [8]: 33.5%
MCV [8]: 64.8 fL
Mono [8]: 7.2%
Neu [8]: 17.8%
PT [8]: 11.7 s
Plat [8]: 119.6 x10_4/uL
RBC [8]: 613.4 x10_4/ul
Ret [8]: 9.3%
WBC [8]: 98.2 x10_2/uL
KIDNEY_L [8]: 1 g
KIDNEY_R [8]: 1 g
KIDNEY_TOTAL [8]: 2 g
LIVER [8]: 10.5 g
A/G [8]: 1.8
ALP [8]: 1035 IU/L
ALT [8]: 29.4 IU/L
AST [8]: 52.6 IU/L
BUN [8]: 19 mg/dL
CRE [8]: 0.5 mg/dL
Ca [8]: 11.3 mg/dL
Cl [8]: 104.2 meq/L
DBIL [8]: 0.024 mg/dL
GLC [8]: 205 mg/dL
IP [8]: 8.7 mg/dL
K [8]: 4.7 meq/L
LDH [8]: 104.8 IU/L
Na [8]: 139 meq/L
PL [8]: 143.6 mg/dL
RALB [8]: 3.7 g/dL
TBIL [8]: 0.3 mg/dL
TC [8]: 81.6 mg/dL
TG [8]: 67.4 mg/dL
TP [8]: 5.8 g/dL
gamma-GTP [8]: 1.4 IU/L
